These results are taken from the Biogen ADME set (Fang et al. 2023).

The aqueous solubility is how much of the substance goes into solution per volume. A higher aqueous solubility goes with a readily soluble substance.

For the data set the following is noted: for aqueous solubility: pH 6.8.

In brackets after ≈: the same amount, converted by molar mass.

On to `CCOc1ccc(CC(=O)NCCn2cccnc2=O)cc1`, for which the MDR1-MDCK efflux ratio worked out at 18; the intrinsic clearance, human liver microsomes is not above 4.74 mL/min/kg; the intrinsic clearance, rat liver microsomes turned out to be 11.1 mL/min/kg; the aqueous solubility was 68.5 µg/mL (≈ 227 µM).
Consider `CNC(=O)C1(Cc2ccc(-c3ccncc3)cc2)CCN(Cc2cccc(F)c2)C1` (configuration not stated), for which the fraction unbound, human plasma came out at 0.127; the fraction unbound, rat plasma worked out at 0.0519; the intrinsic clearance, human liver microsomes was 250 mL/min/kg; the intrinsic clearance, rat liver microsomes was 891 mL/min/kg. Further, the aqueous solubility stood at 57.5 µg/mL (≈ 143 µM).
Regarding `CCN(CC)Cc1cnc(NC(=O)c2ccccc2)s1`, the intrinsic clearance, human liver microsomes is not above 4.74 mL/min/kg and the intrinsic clearance, rat liver microsomes is 192 mL/min/kg.
Regarding `N#Cc1cccc(CN2CCC=C(CNC(=O)c3cccs3)C2)c1`, the MDR1-MDCK efflux ratio was found to be 2.25; the intrinsic clearance, human liver microsomes worked out at 56.7 mL/min/kg; the intrinsic clearance, rat liver microsomes is 442 mL/min/kg; the aqueous solubility turned out to be 52.2 µg/mL (≈ 155 µM).
As for `O=C1NCCN(C(=O)c2ccc3nccn3c2)C1c1ccccc1C(F)(F)F` (configuration not stated), the MDR1-MDCK efflux ratio is 7.15; the fraction unbound, human plasma was 0.71; the fraction unbound, rat plasma stood at 0.633; the intrinsic clearance, human liver microsomes was not above 4.74 mL/min/kg. The intrinsic clearance, rat liver microsomes was found to be 37.5 mL/min/kg and the aqueous solubility came out at 69.6 µg/mL (≈ 179 µM).
`COc1cc2c(cc1OC)CN(CCc1ccc(NC(=O)c3cccc4c(O)c5cccc(OC)c5nc34)cc1)CC2` showed a fraction unbound, human plasma of 0.00062 and a fraction unbound, rat plasma of 0.00051.
In the case of `Cc1nn(C)c(C)c1-c1cc(C(C)(C)C)nc(N2CCN(C)CC2)n1`, the MDR1-MDCK efflux ratio amounted to 1.81; the intrinsic clearance, human liver microsomes is 17.5 mL/min/kg; the intrinsic clearance, rat liver microsomes was determined as 4620 mL/min/kg.
As for `CCCc1n[nH]c2c1C(C1CC=CCC1)C(C#N)=C(N)O2` (configuration not stated), the aqueous solubility stood at 3.07 µg/mL (≈ 10.8 µM).
On to `CC(=O)N1CCN(C(=O)[C@H]2CCCCN2C(=O)OC(C)(C)C)CC1`, for which the MDR1-MDCK efflux ratio was found to be 9.44; the intrinsic clearance, human liver microsomes was not above 4.74 mL/min/kg; the intrinsic clearance, rat liver microsomes was not above 10.7 mL/min/kg; the aqueous solubility was 113 µg/mL (≈ 333 µM).
For `CN(Cc1cnc2ccccc2n1)S(=O)(=O)N1CCCC1`, the MDR1-MDCK efflux ratio stood at 0.702; the intrinsic clearance, human liver microsomes was determined as 13.3 mL/min/kg; the intrinsic clearance, rat liver microsomes turned out to be 1600 mL/min/kg.
Compound `Cc1cc(OCc2cc(C#N)ccc2F)ccc1N` gave an aqueous solubility of 25.4 µg/mL (≈ 99.2 µM).
Regarding `Cc1cc2ccccc2n1CC(=O)N(C)Cc1cnn(C)c1`, the MDR1-MDCK efflux ratio amounted to 2.14 and the aqueous solubility worked out at 47.5 µg/mL (≈ 160 µM).
For `Cc1cc(F)ccc1S(=O)(=O)N1CCCc2cnc(N3CCOCC3)nc21`, the MDR1-MDCK efflux ratio worked out at 0.723 and the aqueous solubility stood at 0.31 µg/mL (≈ 0.79 µM).
For `COc1cc2nc(/C=C/c3cocn3)sc2cc1OC`, the MDR1-MDCK efflux ratio was 0.504; the intrinsic clearance, human liver microsomes came to 11.4 mL/min/kg; the intrinsic clearance, rat liver microsomes came out at 74.5 mL/min/kg; the aqueous solubility is 12.4 µg/mL (≈ 42.9 µM).
On to `O=C(c1ccccc1)N1CCN2C(=O)N(Cc3ccccc3)C(=O)[C@H]2C1`, for which the MDR1-MDCK efflux ratio stood at 1.52; the intrinsic clearance, human liver microsomes turned out to be 6.77 mL/min/kg; the intrinsic clearance, rat liver microsomes turned out to be 78.8 mL/min/kg; the aqueous solubility turned out to be 62.3 µg/mL (≈ 178 µM).
In turn, `COc1ccnc(N2CCCN(Cc3ccccc3C)CC2)n1` showed an intrinsic clearance, human liver microsomes of 756 mL/min/kg and an intrinsic clearance, rat liver microsomes of 2350 mL/min/kg.
With `O=C(CCCNC(=O)NC1CCCCC1)Nc1cc(C2CC2)n[nH]1`, the aqueous solubility stood at 43.9 µg/mL (≈ 132 µM).
Consider `CN(C)c1ccnc(NCc2ccc(F)cc2)n1`, for which the intrinsic clearance, human liver microsomes was found to be 54 mL/min/kg and the intrinsic clearance, rat liver microsomes worked out at 1790 mL/min/kg.
Regarding `Cc1ccnc(N2CCC(OCC3CCCC3)CC2)n1`, the MDR1-MDCK efflux ratio was determined as 0.515; the intrinsic clearance, human liver microsomes is 108 mL/min/kg; the intrinsic clearance, rat liver microsomes was 5910 mL/min/kg.
In the case of `CNC(=O)Cc1csc(-c2ccc(C)cc2)n1`, the MDR1-MDCK efflux ratio came out at 0.708; the intrinsic clearance, human liver microsomes worked out at 108 mL/min/kg; the intrinsic clearance, rat liver microsomes came out at 1010 mL/min/kg; the aqueous solubility was 4.06 µg/mL (≈ 16.5 µM).
The compound `O=C(Nc1nc2ccccc2[nH]1)c1cc(-c2ccccc2)nc2ccccc12` yielded an aqueous solubility of 0.45 µg/mL (≈ 1.23 µM).
As for `CCS(=O)(=O)N1CCN(c2ccc(Nc3ncc(C(N)=O)c(NC4CC4)n3)cc2)CC1`, the MDR1-MDCK efflux ratio worked out at 39.4; the intrinsic clearance, human liver microsomes is 9.73 mL/min/kg; the intrinsic clearance, rat liver microsomes stood at 36.3 mL/min/kg.
In the case of `CCN(CC)CCCNc1ncc(-c2cc(C)no2)c(-c2ccco2)n1`, the MDR1-MDCK efflux ratio is 17.5; the intrinsic clearance, human liver microsomes is 5.13 mL/min/kg; the intrinsic clearance, rat liver microsomes is 312 mL/min/kg; the aqueous solubility stood at 69.8 µg/mL (≈ 196 µM).
Consider `Cc1nnc(N2CCC(CNc3ccc(C#N)cn3)C2)c(C#N)c1C` (configuration not stated), for which the aqueous solubility came to 8.15 µg/mL (≈ 24.4 µM).
Regarding `O=C(NCc1nnc2n1-c1ccccc1CC2)c1ccc2ccccc2c1`, the MDR1-MDCK efflux ratio is 6.88; the intrinsic clearance, human liver microsomes was 28.6 mL/min/kg; the intrinsic clearance, rat liver microsomes turned out to be 517 mL/min/kg; the aqueous solubility turned out to be 34.3 µg/mL (≈ 96.9 µM).
For the compound `COc1cccc(CC(=O)Nc2ccc3nc(C)sc3c2)c1`, the MDR1-MDCK efflux ratio was found to be 0.818; the intrinsic clearance, human liver microsomes is 33.7 mL/min/kg; the intrinsic clearance, rat liver microsomes stood at 342 mL/min/kg; the aqueous solubility was found to be 52.3 µg/mL (≈ 168 µM).
Regarding `CC(C)Cc1nn(C)c(=O)c2c(SCCCO)n(Cc3cccc4ccccc34)cc12`, the MDR1-MDCK efflux ratio stood at 1.82; the intrinsic clearance, human liver microsomes came to 273 mL/min/kg; the intrinsic clearance, rat liver microsomes is 2040 mL/min/kg.
In the case of `COc1ccc(OCC(=O)N2CCN(C)CC2)cc1`, the MDR1-MDCK efflux ratio stood at 0.763; the intrinsic clearance, human liver microsomes was not above 4.74 mL/min/kg; the intrinsic clearance, rat liver microsomes is 133 mL/min/kg; the aqueous solubility worked out at 52.5 µg/mL (≈ 199 µM).
Take `COc1ccc(CC(=O)N2CCc3[nH]c4ccc(Cl)cc4c3C2)cc1OC`: the MDR1-MDCK efflux ratio was determined as 6.37; the intrinsic clearance, human liver microsomes came out at 120 mL/min/kg; the intrinsic clearance, rat liver microsomes stood at 675 mL/min/kg; the aqueous solubility came to 6.7 µg/mL (≈ 17.4 µM).
For `N#Cc1ccsc1NC(=O)c1ccccn1`, the aqueous solubility came out at 5.91 µg/mL (≈ 25.8 µM).
For the compound `Cc1ccc(-n2nc(C(=O)N3CC(O)C3)c3c2CCCC3)cc1`, the MDR1-MDCK efflux ratio was 5.67; the intrinsic clearance, human liver microsomes worked out at 53.3 mL/min/kg; the intrinsic clearance, rat liver microsomes was 182 mL/min/kg; the aqueous solubility was determined as 36.5 µg/mL (≈ 117 µM).
The matching figures for `CN(C(=O)C1CCN(c2ncccn2)CC1)C1CCCCCCC1`: 0.85, 519 mL/min/kg, 3890 mL/min/kg and 49.4 µg/mL (≈ 150 µM).
Turning to `CN1CCN(c2ccc(NC(=O)c3ccccc3Cl)nc2)CC1`, the MDR1-MDCK efflux ratio stood at 0.523; the intrinsic clearance, human liver microsomes was not above 4.74 mL/min/kg; the intrinsic clearance, rat liver microsomes was found to be 349 mL/min/kg; the aqueous solubility was determined as 45.8 µg/mL (≈ 138 µM).
Consider `CN(CC(=O)Nc1cc(F)cc(F)c1)c1ccnc(C(N)=O)c1`, for which the MDR1-MDCK efflux ratio was determined as 12.3; the intrinsic clearance, human liver microsomes is not above 4.74 mL/min/kg; the intrinsic clearance, rat liver microsomes was 42.6 mL/min/kg; the aqueous solubility came out at 45.9 µg/mL (≈ 143 µM).
As to `CCCn1ncc2ccc(C3CCCN(CC(=O)N4CCCC4)C3)nc21` (configuration not stated), the MDR1-MDCK efflux ratio turned out to be 6.7; the intrinsic clearance, human liver microsomes was found to be 27.6 mL/min/kg; the intrinsic clearance, rat liver microsomes amounted to 289 mL/min/kg; the aqueous solubility was 49.4 µg/mL (≈ 139 µM).
For `Cc1cc(NC(=O)CCc2c(C)nn(C)c2C)no1`, the MDR1-MDCK efflux ratio stood at 3.86; the intrinsic clearance, human liver microsomes was not above 4.74 mL/min/kg; the intrinsic clearance, rat liver microsomes was determined as 45 mL/min/kg; the aqueous solubility is 50.7 µg/mL (≈ 193 µM).
Consider `COc1cc(C(=O)O)c(N)c(OC)c1OC`, for which the MDR1-MDCK efflux ratio came to 1.69; the intrinsic clearance, human liver microsomes was not above 4.74 mL/min/kg; the intrinsic clearance, rat liver microsomes is not above 10.7 mL/min/kg; the aqueous solubility was determined as 53.9 µg/mL (≈ 237 µM).
`COc1ccc(CNc2ncc(-c3ccc4c(c3)OCO4)n2C)c(OC)c1`: the MDR1-MDCK efflux ratio was 1.48; the intrinsic clearance, human liver microsomes was 202 mL/min/kg; the intrinsic clearance, rat liver microsomes came to 1590 mL/min/kg; the aqueous solubility was 42.5 µg/mL (≈ 116 µM).
With `Cc1nnc(-c2ccc(N3CCC(Oc4ccccc4C(F)(F)F)CC3)nn2)s1`, the MDR1-MDCK efflux ratio worked out at 0.485; the fraction unbound, human plasma came to 0.00124; the intrinsic clearance, human liver microsomes turned out to be 14.4 mL/min/kg.
With `CC(=O)N1CCC[C@H]1C(=O)Nc1cccc(OC(F)F)c1`, the MDR1-MDCK efflux ratio came to 1.42; the intrinsic clearance, human liver microsomes was not above 4.74 mL/min/kg; the intrinsic clearance, rat liver microsomes amounted to 31.4 mL/min/kg; the aqueous solubility was 47 µg/mL (≈ 157 µM).
For `O=C(Cc1csc(-c2ccccn2)n1)NC1CCCCCC1`, the MDR1-MDCK efflux ratio stood at 0.945; the intrinsic clearance, human liver microsomes was determined as 87 mL/min/kg; the intrinsic clearance, rat liver microsomes was determined as 2280 mL/min/kg; the aqueous solubility stood at 11.4 µg/mL (≈ 36.2 µM).
For `c1ccc(-c2cn(C3CNC3)nn2)cc1`, the intrinsic clearance, human liver microsomes is not above 4.74 mL/min/kg and the intrinsic clearance, rat liver microsomes was 28.6 mL/min/kg.
For the compound `CC(C)(C)OC(=O)NCCCC(=O)N[C@H]1C[C@@H](n2cnc3c(NCc4ccccc4)ncnc32)[C@@H](O)[C@H]1O`, the MDR1-MDCK efflux ratio came out at 4.62; the intrinsic clearance, human liver microsomes turned out to be 110 mL/min/kg; the intrinsic clearance, rat liver microsomes amounted to 160 mL/min/kg.
For the compound `COc1ccc(C)cc1-n1ccc(C(=O)NC(C)C)n1`, the MDR1-MDCK efflux ratio amounted to 0.545; the intrinsic clearance, human liver microsomes was 62.5 mL/min/kg; the intrinsic clearance, rat liver microsomes was 334 mL/min/kg; the aqueous solubility stood at 35.7 µg/mL (≈ 131 µM).
The corresponding values for `CCNC(=O)c1ccc(CS(C)(=O)=O)cc1` are 2.62, not above 4.74 mL/min/kg, 20.6 mL/min/kg and 40.9 µg/mL (≈ 169 µM).
As for `Cc1c(C(=O)N2CCC(C(=O)Nc3ccc4c(c3)OCO4)CC2)oc2c(F)cccc12`, the MDR1-MDCK efflux ratio came to 0.872; the intrinsic clearance, human liver microsomes amounted to 58.3 mL/min/kg; the intrinsic clearance, rat liver microsomes was determined as 545 mL/min/kg; the aqueous solubility was determined as 11 µg/mL (≈ 26 µM).
Take `Cn1c(CNC(=O)Cc2cccc3ccccc23)nc2ccccc21`: the MDR1-MDCK efflux ratio is 2.33; the intrinsic clearance, human liver microsomes amounted to 187 mL/min/kg; the intrinsic clearance, rat liver microsomes was determined as 1590 mL/min/kg; the aqueous solubility amounted to 10.1 µg/mL (≈ 30.5 µM).
